Three compounds from ChEMBL document CHEMBL1177813, “Design and synthesis of trivalent ligands targeting opioid, cholecystokinin, and melanocortin receptors for the treatment of pain” (Bioorg Med Chem Lett, 2010) can be followed below.

SMILES strings stand for the structures. Calls of active or inactive are those of the source. The calls are words filed in the database; no cut-off is given here.

In assay [1] the target is Delta-type opioid receptor (Homo sapiens, UniProt P41143). Briefly: Displacement of [3H]DPDPE from human delta opioid receptor expressed in mouse HN9.10 cells. The class given is cell-based. Background: Loss of bound radioactivity is the signal in a displacement assay; it reports binding, not function.
Chain of Delta-type opioid receptor (Homo sapiens, UniProt P41143) (P41143 whole entry): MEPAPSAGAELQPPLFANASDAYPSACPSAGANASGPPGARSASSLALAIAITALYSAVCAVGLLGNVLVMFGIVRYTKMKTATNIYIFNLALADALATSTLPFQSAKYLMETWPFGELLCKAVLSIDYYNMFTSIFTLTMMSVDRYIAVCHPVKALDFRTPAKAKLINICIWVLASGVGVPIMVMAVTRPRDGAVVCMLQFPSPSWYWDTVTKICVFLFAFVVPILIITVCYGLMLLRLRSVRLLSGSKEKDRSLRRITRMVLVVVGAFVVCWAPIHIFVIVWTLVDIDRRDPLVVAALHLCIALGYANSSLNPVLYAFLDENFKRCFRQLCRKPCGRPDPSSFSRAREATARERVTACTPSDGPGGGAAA
For the next assay, the species on record is Cavia porcellus. As to the kind of experiment: […] activity at CCK receptor in Hartley guinea pig ileum longitudinal muscle with myenteric plexus assessed as inhibition of CCK8-stimulated muscle contraction at 1 uM. The class given is functional, tissue-based.
Assay [2] has as its target Mu-type opioid receptor (Cavia porcellus) (UniProt P97266). As to the kind of experiment: Agonist activity at mu opioid receptor in guinea pig ileum assessed as inhibition of electrically-stimulated muscle contraction at 1 uM. The class given is functional, tissue-based. On the set-up: scale not given: the % may be the effect or the level left.
A further assay has as its target Melanocortin receptor 4 (Homo sapiens, UniProt P32245). As to the kind of experiment: Displacement of Eu-NDP-alphaMSH from human MC4 receptor expressed in human HEK293 cells. The class given is cell-based.
In assay [3] the target is Mu-type opioid receptor (Rattus norvegicus, UniProt P33535). As to the kind of experiment: Displacement of [3H]DAMGO from rat mu opioid receptor expressed in mouse HN9.10 cells. The class given is cell-based.
Chain of Mu-type opioid receptor (Rattus norvegicus, UniProt P33535) (P33535 whole entry): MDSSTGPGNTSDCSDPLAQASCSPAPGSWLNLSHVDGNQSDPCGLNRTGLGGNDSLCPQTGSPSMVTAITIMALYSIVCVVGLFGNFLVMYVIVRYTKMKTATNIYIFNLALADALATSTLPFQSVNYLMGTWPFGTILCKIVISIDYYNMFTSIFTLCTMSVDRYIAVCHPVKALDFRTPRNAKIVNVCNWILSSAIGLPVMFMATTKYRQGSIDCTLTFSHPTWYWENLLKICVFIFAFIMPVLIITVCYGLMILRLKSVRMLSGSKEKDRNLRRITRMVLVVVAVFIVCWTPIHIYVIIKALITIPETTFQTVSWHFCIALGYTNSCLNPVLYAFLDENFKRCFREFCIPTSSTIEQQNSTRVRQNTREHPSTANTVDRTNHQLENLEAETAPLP
In assay [4] the target is T1, Cholecystokinin receptor type A (Homo sapiens, UniProt P32238).
T1 sequence (P32238 whole entry): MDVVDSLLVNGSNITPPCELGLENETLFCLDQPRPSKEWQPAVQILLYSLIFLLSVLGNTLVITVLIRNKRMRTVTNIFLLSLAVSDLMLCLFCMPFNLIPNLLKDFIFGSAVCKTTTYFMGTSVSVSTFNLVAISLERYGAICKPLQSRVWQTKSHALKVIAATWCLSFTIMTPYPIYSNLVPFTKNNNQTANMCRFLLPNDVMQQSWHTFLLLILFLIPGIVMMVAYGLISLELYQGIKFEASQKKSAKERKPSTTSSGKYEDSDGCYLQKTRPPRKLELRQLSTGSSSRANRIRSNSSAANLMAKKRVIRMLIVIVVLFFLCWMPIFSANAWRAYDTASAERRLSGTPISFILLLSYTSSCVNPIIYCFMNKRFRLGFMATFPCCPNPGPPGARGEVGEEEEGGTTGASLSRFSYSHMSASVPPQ
Briefly: Displacement of [125I]CCK-8(SO3) from human CCK1 receptor expressed in human HEK293 cells. The class given is cell-based. The conditions noted are these: for Ki: read-out: Ki.

Assay [5] has as its target T2, Gastrin/cholecystokinin type B receptor (Homo sapiens, UniProt P32239).
T2 sequence (P32239 whole entry): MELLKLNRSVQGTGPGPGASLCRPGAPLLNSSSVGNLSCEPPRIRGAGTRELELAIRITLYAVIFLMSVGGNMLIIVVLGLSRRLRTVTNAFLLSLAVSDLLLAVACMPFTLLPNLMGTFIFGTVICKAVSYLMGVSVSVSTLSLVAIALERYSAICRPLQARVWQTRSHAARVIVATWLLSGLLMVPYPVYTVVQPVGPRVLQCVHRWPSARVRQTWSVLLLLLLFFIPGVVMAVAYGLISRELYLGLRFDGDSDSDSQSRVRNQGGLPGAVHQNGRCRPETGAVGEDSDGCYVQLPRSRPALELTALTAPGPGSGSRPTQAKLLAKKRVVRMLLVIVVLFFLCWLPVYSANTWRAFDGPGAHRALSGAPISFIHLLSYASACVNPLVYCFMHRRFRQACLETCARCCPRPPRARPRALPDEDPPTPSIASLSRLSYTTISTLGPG
As to the kind of experiment: Displacement of [125I]CCK-8(SO3) from human CCK2 receptor expressed in human HEK293 cells. The class given is cell-based. Conditions: for Ki: read-out: Ki.

A short description of assay [6]: Agonist activity at CCK receptor in Hartley guinea pig ileum longitudinal muscle with myenteric plexus assessed as inhibition of electrically-stimulated muscle contraction at 1 uM relative to KCl. On the set-up: scale not given: the % may be the effect or the level left. The class given is functional, Cavia porcellus.
Assay [7] deals with Delta-type opioid receptor (Mus musculus) (UniProt P32300). As to the kind of experiment: Agonist activity at delta opioid receptor in mouse vas deferens assessed as inhibition of electrically-stimulated muscle contraction at 1 uM. The class given is functional, tissue-based. On the set-up: scale not given: the % may be the effect or the level left.
Chain of Delta-type opioid receptor (Mus musculus) (P32300 whole entry): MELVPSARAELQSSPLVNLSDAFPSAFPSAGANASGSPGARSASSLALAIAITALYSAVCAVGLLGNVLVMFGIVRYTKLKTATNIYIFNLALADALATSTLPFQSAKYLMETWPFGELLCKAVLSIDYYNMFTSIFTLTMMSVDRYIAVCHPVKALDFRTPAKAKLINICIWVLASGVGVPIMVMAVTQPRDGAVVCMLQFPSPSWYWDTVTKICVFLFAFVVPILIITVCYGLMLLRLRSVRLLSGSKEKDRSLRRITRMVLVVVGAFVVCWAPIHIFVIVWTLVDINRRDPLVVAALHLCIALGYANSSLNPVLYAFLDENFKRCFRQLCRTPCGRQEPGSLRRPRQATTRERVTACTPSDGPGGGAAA
For assay [8], the target named is Mu-type opioid receptor (Cavia porcellus, UniProt P97266). Briefly: Agonist activity at mu opioid receptor in guinea pig ileum assessed as inhibition of electrically-stimulated muscle contraction. The class given is functional, tissue-based.
Chain of Mu-type opioid receptor (Cavia porcellus, UniProt P97266) (P97266 whole entry): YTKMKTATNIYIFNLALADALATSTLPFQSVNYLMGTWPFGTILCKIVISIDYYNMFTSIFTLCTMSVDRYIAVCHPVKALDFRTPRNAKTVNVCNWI
Assay [9] in a line: […] activity at CCK receptor in Hartley guinea pig ileum longitudinal muscle with myenteric plexus assessed as inhibition of CCK8-stimulated muscle contraction. The class given is functional, Cavia porcellus.
Assay [10] deals with T3, Delta-type opioid receptor (Mus musculus, UniProt P32300). Briefly: Agonist activity at delta opioid receptor in mouse vas deferens assessed as inhibition of electrically-stimulated muscle contraction. The class given is functional, tissue-based.
T3 sequence (P32300 whole entry): as the sequence (P32300 whole entry) above
Assay [11] concerns the target T3, Delta-type opioid receptor. Briefly: Antagonist activity at delta opioid receptor in mouse vas deferens assessed as inhibition of DPDPE-induced muscle contraction. The class given is functional, tissue-based.

Chain of Melanocortin receptor 4 (P32245 whole entry): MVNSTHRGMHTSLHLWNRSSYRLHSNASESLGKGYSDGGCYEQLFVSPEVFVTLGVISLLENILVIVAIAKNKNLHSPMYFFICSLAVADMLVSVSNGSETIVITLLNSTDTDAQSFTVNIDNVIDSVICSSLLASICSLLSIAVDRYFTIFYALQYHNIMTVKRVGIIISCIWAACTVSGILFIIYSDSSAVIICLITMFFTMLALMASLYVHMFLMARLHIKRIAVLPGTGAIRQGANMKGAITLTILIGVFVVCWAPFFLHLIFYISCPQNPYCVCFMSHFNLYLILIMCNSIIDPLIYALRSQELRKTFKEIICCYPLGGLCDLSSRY
Chain of Mu-type opioid receptor (Cavia porcellus) (P97266 whole entry): as the sequence (P97266 whole entry) above

For `N=C(N)NCCC[C@@H]1NC(=O)[C@H](Cc2ccc(Cl)cc2)NC(=O)[C@H](Cc2cnc[nH]2)NC(=O)CNC(=O)[C@H](NC(=O)[C@@H](N)Cc2ccc(O)cc2)CC(=O)NCCCC[C@@H](C(=O)N[C@@H](CC(=O)O)C(=O)N[C@H](Cc2ccccc2)C(N)=O)NC(=O)[C@H](Cc2cc3ccccc3[nH]2)NC1=O`, the IC50 in [1] was 2510 nM; on Melanocortin receptor 4 it was 32 nM; at Mu-type opioid receptor [3], 3980 nM; in [4] it was 126 nM; in [5] it was 1000 nM. The Ki in assay [1] stood at 1300 nM; on Mu-type opioid receptor [3], 2100 nM; in [4] it was 560 nM; in [5], 930 nM. In addition, the Ke result in the assay listed under Cavia porcellus is “inactive”. Moreover, the Activity stood at 0% in [2], 0% in [6] and 16% in assay [7].

In the case of `CCCC[C@H](NC(=O)[C@H](Cc1c[nH]c2ccccc12)NC(=O)[C@H](CCCNC(=N)N)NC(=O)[C@@H](Cc1ccc2ccccc2c1)NC(=O)[C@H](Cc1cnc[nH]1)NC(=O)[C@H](Cc1ccccc1)NC(=O)CNC(=O)[C@@H](C)NC(=O)[C@@H](N)Cc1c(C)cc(O)cc1C)C(=O)N[C@@H](CC(=O)O)C(=O)N[C@@H](Cc1ccccc1)C(N)=O`, the IC50 was 8.3 nM at Mu-type opioid receptor [8]; 160 nM at Melanocortin receptor 4; 0.251 nM at Mu-type opioid receptor [3]; 11 nM in assay [10]; 20 nM in [4]; 126 nM in assay [5]. Besides, in assay [9], the Ke was 940 nM. In addition, the values for the Ki (on Mu-type opioid receptor [3]; in [4]; in assay [5]) were 0.13 nM, 18 nM and 110 nM, respectively. The Activity in assay [6] stood at 0%.

In the case of `CCCC[C@H](NC(=O)[C@H](Cc1c[nH]c2ccccc12)NC(=O)[C@H](CCCNC(=N)N)NC(=O)[C@@H](Cc1ccc2ccccc2c1)NC(=O)[C@H](Cc1cnc[nH]1)NC(=O)[C@@H]1Cc2ccccc2CN1C(=O)C(N)Cc1c(C)cc(O)cc1C)C(=O)N[C@@H](CC(=O)O)C(=O)N[C@@H](Cc1ccccc1)C(N)=O` (single isomer, unassigned), the IC50 in [1] was 2 nM; on Melanocortin receptor 4, 230 nM; at Mu-type opioid receptor [3], 100 nM; in assay [4], 15.8 nM; in [5], 200 nM; in assay [11] it was 2.5 nM. Further, the Ki in assay [1] was 0.91 nM; on Mu-type opioid receptor [3] it was 47 nM; in [4], 15 nM; in assay [5] it was 200 nM. The Ke entry in the assay listed under Cavia porcellus is “inactive”. The Activity in assay [2] is 5%; in assay [6], 0%.

The term IC50 denotes the point on the concentration scale where inhibition reaches its midpoint. A word on the Ki: it is the dissociation constant of the complex between target and ligand, obtained from inhibition or displacement.
